The term inhibition denotes the drop in the measured response relative to a control, in per cent.

What all share (test): competitive ABPP of Abhd10 versus anti-targets – biochemical, fluorescence, gel-based, mouse proteome, selectivity assay for PME-1 inhibitor project, late-stage follow-up (AID 588807)
The test system of one test is APEH. To be noted: anti-target, stronger effect = higher value.
Another test relates to Kiaa1363. To be noted: anti-target, stronger effect = higher value.
The test system of another test is Magl. To be noted: anti-target, at 10 µM, stronger effect = higher value.
Test [1] concerns the target Monoacylglycerol lipase ABHD6 (Mus musculus) (UniProt Q8R2Y0). To be noted: anti-target, stronger effect = higher value.
Test [2] concerns the target Palmitoyl-protein thioesterase ABHD10, mitochondrial (Mus musculus) (UniProt Q6PE15). To be noted: stronger effect = higher value.
In test [3] the target is Prolyl endopeptidase (Mus musculus) (UniProt Q9QUR6). To be noted: PREP, anti-target, stronger effect = higher value.
Chain of Prolyl endopeptidase (Mus musculus) (Q9QUR6 whole entry, looked up): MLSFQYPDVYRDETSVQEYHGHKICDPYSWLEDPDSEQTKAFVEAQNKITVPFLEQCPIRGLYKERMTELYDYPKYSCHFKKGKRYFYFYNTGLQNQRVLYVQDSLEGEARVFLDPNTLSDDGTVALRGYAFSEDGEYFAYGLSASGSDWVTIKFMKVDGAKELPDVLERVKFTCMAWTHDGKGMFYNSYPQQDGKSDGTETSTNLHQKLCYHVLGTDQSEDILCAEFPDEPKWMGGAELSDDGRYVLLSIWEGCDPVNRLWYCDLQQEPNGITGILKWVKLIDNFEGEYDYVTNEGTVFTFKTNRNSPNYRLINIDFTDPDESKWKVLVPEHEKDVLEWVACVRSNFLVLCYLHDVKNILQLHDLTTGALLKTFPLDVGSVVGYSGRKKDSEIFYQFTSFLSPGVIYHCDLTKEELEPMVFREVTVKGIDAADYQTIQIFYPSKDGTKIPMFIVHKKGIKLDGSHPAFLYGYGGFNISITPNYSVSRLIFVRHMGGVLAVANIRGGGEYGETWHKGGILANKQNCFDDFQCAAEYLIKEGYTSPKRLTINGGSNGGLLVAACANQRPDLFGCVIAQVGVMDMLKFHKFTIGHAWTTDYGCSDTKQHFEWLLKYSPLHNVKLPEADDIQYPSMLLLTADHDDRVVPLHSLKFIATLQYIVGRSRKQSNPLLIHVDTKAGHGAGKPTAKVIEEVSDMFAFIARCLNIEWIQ

Active and inactive are the calls of the source. The rule behind the calls is not given here.

Chain of Monoacylglycerol lipase ABHD6 (Mus musculus) (Q8R2Y0 whole entry, looked up): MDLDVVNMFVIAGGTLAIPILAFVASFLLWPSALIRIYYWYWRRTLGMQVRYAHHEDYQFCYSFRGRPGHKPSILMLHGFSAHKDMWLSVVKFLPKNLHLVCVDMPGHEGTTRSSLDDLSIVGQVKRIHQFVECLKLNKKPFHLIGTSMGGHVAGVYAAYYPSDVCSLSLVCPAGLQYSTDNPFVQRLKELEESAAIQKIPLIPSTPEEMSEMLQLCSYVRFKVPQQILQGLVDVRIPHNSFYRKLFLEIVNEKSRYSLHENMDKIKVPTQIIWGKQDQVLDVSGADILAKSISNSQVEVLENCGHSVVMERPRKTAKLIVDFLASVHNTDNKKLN
Chain of Palmitoyl-protein thioesterase ABHD10, mitochondrial (Mus musculus) (Q6PE15 whole entry, looked up): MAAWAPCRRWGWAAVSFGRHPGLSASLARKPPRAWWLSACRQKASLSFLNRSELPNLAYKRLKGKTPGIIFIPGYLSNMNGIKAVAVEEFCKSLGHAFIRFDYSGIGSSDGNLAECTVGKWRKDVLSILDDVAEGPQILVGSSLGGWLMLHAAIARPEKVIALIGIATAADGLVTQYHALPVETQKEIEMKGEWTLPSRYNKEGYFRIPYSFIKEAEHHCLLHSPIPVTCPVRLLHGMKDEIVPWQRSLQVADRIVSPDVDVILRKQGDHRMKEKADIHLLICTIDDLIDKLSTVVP

`C=CCOC(=O)N1C(=O)[C@@](CC)(c2ccccc2)N1C(=O)OCC=C`: the inhibition in the test with APEH (at 10 µM) was 55% (inactive); in the test on Kiaa1363 (at 10 µM), 35% (inactive); in the test on Magl it was 50% (inactive); in test [1] (at 10 µM), 80% (inactive); in test [2] (at 10 µM), 100% (inactive); in test [2] (inhibition, at 0.1 µM), 30%. Besides, the inhibition is 90% in test [2] (inhibition, at 1 µM); 70% (inactive) in test [3] (at 10 µM); 10% in test [3] (inhibition, at 1 µM).
As to `CC[C@@]1(c2ccc(OC)cc2)C(=O)N(C(=O)OC)N1C(=O)OC`, the inhibition is 95% (inactive) with APEH (at 10 µM); 95% in the test with APEH (inhibition, at 1 µM); 0% (inactive) in the test with Kiaa1363 (at 10 µM); 10% (inactive) in the test on Magl; 10% (inactive) in test [1] (at 10 µM); 100% (inactive) in test [2] (at 10 µM). For the same compound, the inhibition was 70% in test [2] (inhibition, at 1 µM) and 40% (inactive) in test [3] (at 10 µM).
`CCOC(=O)N1C(=O)[C@@](CC)(c2cccc(C)c2)N1C(=O)OCC`: the inhibition was 70% (inactive) in the test on APEH (at 10 µM); 25% (inactive) in the test with Kiaa1363 (at 10 µM); 45% (inactive) with Magl; 65% (inactive) in test [1] (at 10 µM); 100% in test [2] (at 10 µM); 75% in test [2] (inhibition, at 0.1 µM). The inhibition in test [2] (inhibition, at 1 µM) is 100%; in test [3] (at 10 µM), 100% (inactive); in test [3] (inhibition, at 0.1 µM), 20%; in test [3] (inhibition, at 1 µM) it was 45%.
`CC[C@]1(c2ccc(C)cc2)C(=O)N(C(=O)OC(C)C)N1C(=O)OC(C)C`: the inhibition is 100% (inactive) in the test with APEH (at 10 µM); 30% with APEH (inhibition, at 1 µM); 0% (inactive) in the test with Kiaa1363 (at 10 µM); 0% (inactive) in the test with Magl; 0% (inactive) in test [1] (at 10 µM); 45% (inactive) in test [2] (at 10 µM). Also, the inhibition in test [3] (at 10 µM) was 0% (inactive).
On to `CC[C@@]1(c2ccccc2)C(=O)N(C(=O)OC)N1C(=O)OC`, for which the inhibition in the test on APEH (at 10 µM) is 0% (inactive); with Kiaa1363 (at 10 µM) it was 0% (inactive); with Magl, 0% (inactive); in test [1] (at 10 µM), 0% (inactive); in test [2] (at 10 µM), 10% (inactive); in test [3] (at 10 µM), 0% (inactive).
As to `CC[C@@]1(c2cccc(C)c2)C(=O)N(C(=O)OC(C)(C)C)N1C(=O)OC(C)(C)C`, the inhibition in the test on APEH (at 10 µM) is 0% (inactive); in the test with Kiaa1363 (at 10 µM) it was 0% (inactive); in the test on Magl it was 0% (inactive); in test [1] (at 10 µM), 10% (inactive); in test [2] (at 10 µM), 70% (inactive); in test [2] (inhibition, at 1 µM), 10%. Further, the inhibition in test [3] (at 10 µM) was 0% (inactive).
Consider `CC[C@@]1(c2cccc(Cl)c2)C(=O)N(C(=O)OC)N1C(=O)OC`, for which the inhibition with APEH (at 10 µM) was 90% (inactive); in the test with Kiaa1363 (at 10 µM) it was 20% (inactive); in the test on Magl, 10% (inactive); in test [1] (at 10 µM), 65% (inactive); in test [2] (at 10 µM) it was 95% (inactive); in test [2] (inhibition, at 0.1 µM), 45%. Moreover, the inhibition is 90% in test [2] (inhibition, at 1 µM) and 90% (inactive) in test [3] (at 10 µM).
For the compound `C=CCOC(=O)N1C(=O)[C@@](CC)(c2ccc(C)cc2)N1C(=O)OCC=C`, the inhibition is 0% (inactive) with APEH (at 10 µM); 10% (inactive) in the test with Kiaa1363 (at 10 µM); 50% (inactive) in the test on Magl; 75% (inactive) in test [1] (at 10 µM); 90% in test [2] (at 10 µM); 80% in test [2] (inhibition, at 0.1 µM). Besides, the inhibition in test [2] (inhibition, at 1 µM) was 90%; in test [3] (at 10 µM), 40% (inactive); in test [3] (inhibition, at 1 µM) it was 15%.
Regarding `CC[C@@]1(c2cccc(OC)c2)C(=O)N(C(=O)OC)N1C(=O)OC`, the inhibition is 0% (inactive) with APEH (at 10 µM); 0% (inactive) in the test on Kiaa1363 (at 10 µM); 0% (inactive) in the test with Magl; 0% (inactive) in test [1] (at 10 µM); 90% (inactive) in test [2] (at 10 µM); 65% in test [2] (inhibition, at 1 µM). In test [3] (at 10 µM), the inhibition was 0% (inactive).
As for `CC[C@@]1(c2cccc(C)c2)C(=O)N(C(=O)OCC(Cl)(Cl)Cl)N1C(=O)OCC(Cl)(Cl)Cl`, the inhibition in the test with APEH (at 10 µM) was 0% (inactive); in the test on Kiaa1363 (at 10 µM) it was 0% (inactive); in the test with Magl it was 0% (inactive); in test [1] (at 10 µM), 0% (inactive); in test [2] (at 10 µM), 20% (inactive); in test [3] (at 10 µM), 10% (inactive).
On to `Cc1cccc([C@]2(C)C(=O)N(C(=O)OC(C)C)N2C(=O)OC(C)C)c1`, for which the inhibition is 25% (inactive) with APEH (at 10 µM); 0% (inactive) in the test on Kiaa1363 (at 10 µM); 10% (inactive) with Magl; 0% (inactive) in test [1] (at 10 µM); 100% in test [2] (at 10 µM); 55% in test [2] (inhibition, at 0.1 µM). For the same compound, the inhibition in test [2] (inhibition, at 1 µM) is 95%; in test [3] (at 10 µM), 40% (inactive).
With `CC[C@@]1(c2cccc(Cl)c2)C(=O)N(C(=O)OC(C)C)N1C(=O)OC(C)C`, the inhibition is 65% (inactive) in the test with APEH (at 10 µM); 30% in the test on APEH (inhibition, at 1 µM); 75% (inactive) in the test with Kiaa1363 (at 10 µM); 25% with Kiaa1363 (inhibition, at 1 µM); 45% (inactive) in the test on Magl; 70% (inactive) in test [1] (at 10 µM). Further, the inhibition in test [1] (inhibition, at 0.1 µM) is 15%; in test [1] (inhibition, at 1 µM) it was 20%; in test [2] (at 10 µM) it was 100% (inactive); in test [2] (inhibition, at 0.1 µM), 40%; in test [2] (inhibition, at 1 µM), 100%; in test [3] (at 10 µM), 95% (inactive). Further, the inhibition in test [3] (inhibition, at 1 µM) is 50%.
Take `CCOC(=O)N1C(=O)[C@@](C)(c2cccc(C)c2)N1C(=O)OCC`: the inhibition was 45% (inactive) in the test with APEH (at 10 µM); 0% (inactive) in the test on Kiaa1363 (at 10 µM); 0% (inactive) with Magl; 0% (inactive) in test [1] (at 10 µM); 100% in test [2] (at 10 µM); 60% in test [2] (inhibition, at 0.1 µM). For the same compound, the inhibition in test [2] (inhibition, at 1 µM) was 80%; in test [3] (at 10 µM), 0% (inactive).
`CCC[C@@]1(c2cccc(C)c2)C(=O)N(C(=O)OC)N1C(=O)OC`: the inhibition was 0% (inactive) with APEH (at 10 µM); 0% (inactive) with Kiaa1363 (at 10 µM); 0% (inactive) in the test with Magl; 0% (inactive) in test [1] (at 10 µM); 10% (inactive) in test [2] (at 10 µM); 0% (inactive) in test [3] (at 10 µM).
Take `COC(=O)N1C(=O)[C@](c2ccccc2)(C2CCCC2)N1C(=O)OC`: the inhibition in the test with APEH (at 10 µM) is 85% (inactive); in the test on Kiaa1363 (at 10 µM), 0% (inactive); in the test with Magl, 0% (inactive); in test [1] (at 10 µM), 0% (inactive); in test [2] (at 10 µM), 0% (inactive); in test [3] (at 10 µM) it was 0% (inactive).
On to `CC[C@]1(c2cccc(C)c2)C(=O)N(C(=O)OC)N1C(=O)OC`, for which the inhibition in the test on APEH (at 10 µM) is 0% (inactive); in the test on Kiaa1363 (at 10 µM), 0% (inactive); with Magl it was 0% (inactive); in test [1] (at 10 µM), 0% (inactive); in test [2] (at 10 µM), 85% (inactive); in test [2] (inhibition, at 1 µM), 20%. Also, the inhibition in test [3] (at 10 µM) was 0% (inactive).

(Values after PubChem BioAssay AID588807 (The Scripps Research Institute Molecular Screening Center, 2011).)
